Results published in ChEMBL document CHEMBL4376804, “Review of Transient Receptor Potential Canonical (TRPC5) Channel Modulators and Diseases” (J Med Chem, 2019).

Tests used:
[1] = molecular target: T1, Short transient receptor potential channel 5 (Mus musculus, UniProt Q9QX29); assay: Inhibition of mouse TRPC5 by FLIPR assay
T1 sequence (Q9QX29 whole entry): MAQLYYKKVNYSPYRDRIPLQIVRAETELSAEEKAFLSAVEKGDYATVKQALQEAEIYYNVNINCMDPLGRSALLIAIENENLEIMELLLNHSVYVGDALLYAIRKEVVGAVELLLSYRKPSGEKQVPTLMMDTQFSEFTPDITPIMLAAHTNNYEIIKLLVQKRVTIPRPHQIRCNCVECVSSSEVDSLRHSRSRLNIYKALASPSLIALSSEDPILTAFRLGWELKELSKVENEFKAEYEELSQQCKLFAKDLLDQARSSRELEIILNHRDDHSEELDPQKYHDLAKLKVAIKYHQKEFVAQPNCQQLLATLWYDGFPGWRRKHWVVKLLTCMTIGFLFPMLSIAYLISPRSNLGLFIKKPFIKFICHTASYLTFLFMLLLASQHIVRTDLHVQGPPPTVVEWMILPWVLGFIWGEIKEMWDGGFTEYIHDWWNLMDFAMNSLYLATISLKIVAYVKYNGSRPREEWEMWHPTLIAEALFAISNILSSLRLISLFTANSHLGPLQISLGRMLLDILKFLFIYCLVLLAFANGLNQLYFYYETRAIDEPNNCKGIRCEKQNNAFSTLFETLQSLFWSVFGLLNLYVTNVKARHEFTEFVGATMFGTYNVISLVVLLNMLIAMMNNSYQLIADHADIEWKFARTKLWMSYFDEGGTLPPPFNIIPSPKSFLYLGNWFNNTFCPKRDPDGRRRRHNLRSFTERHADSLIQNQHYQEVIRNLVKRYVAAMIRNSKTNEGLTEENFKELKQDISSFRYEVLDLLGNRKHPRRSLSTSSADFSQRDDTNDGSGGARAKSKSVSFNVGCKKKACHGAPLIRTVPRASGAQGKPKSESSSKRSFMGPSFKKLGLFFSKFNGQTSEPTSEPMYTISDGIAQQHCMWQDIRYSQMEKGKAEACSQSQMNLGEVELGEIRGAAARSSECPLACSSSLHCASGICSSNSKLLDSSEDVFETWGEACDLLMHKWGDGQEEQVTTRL

[2] = molecular target: T2, Short transient receptor potential channel 4 (Mus musculus, UniProt Q9QUQ5); assay: Inhibition of YFP-tagged mouse TRPC4 beta expressed in thapsigargin treated HEK293 cells co-expressing M3 receptor assessed as reduction in carbachol-induced calcium level by fluo-4 dye based fluorescence assay; assay type: cell-based
T2 sequence (Q9QUQ5 whole entry): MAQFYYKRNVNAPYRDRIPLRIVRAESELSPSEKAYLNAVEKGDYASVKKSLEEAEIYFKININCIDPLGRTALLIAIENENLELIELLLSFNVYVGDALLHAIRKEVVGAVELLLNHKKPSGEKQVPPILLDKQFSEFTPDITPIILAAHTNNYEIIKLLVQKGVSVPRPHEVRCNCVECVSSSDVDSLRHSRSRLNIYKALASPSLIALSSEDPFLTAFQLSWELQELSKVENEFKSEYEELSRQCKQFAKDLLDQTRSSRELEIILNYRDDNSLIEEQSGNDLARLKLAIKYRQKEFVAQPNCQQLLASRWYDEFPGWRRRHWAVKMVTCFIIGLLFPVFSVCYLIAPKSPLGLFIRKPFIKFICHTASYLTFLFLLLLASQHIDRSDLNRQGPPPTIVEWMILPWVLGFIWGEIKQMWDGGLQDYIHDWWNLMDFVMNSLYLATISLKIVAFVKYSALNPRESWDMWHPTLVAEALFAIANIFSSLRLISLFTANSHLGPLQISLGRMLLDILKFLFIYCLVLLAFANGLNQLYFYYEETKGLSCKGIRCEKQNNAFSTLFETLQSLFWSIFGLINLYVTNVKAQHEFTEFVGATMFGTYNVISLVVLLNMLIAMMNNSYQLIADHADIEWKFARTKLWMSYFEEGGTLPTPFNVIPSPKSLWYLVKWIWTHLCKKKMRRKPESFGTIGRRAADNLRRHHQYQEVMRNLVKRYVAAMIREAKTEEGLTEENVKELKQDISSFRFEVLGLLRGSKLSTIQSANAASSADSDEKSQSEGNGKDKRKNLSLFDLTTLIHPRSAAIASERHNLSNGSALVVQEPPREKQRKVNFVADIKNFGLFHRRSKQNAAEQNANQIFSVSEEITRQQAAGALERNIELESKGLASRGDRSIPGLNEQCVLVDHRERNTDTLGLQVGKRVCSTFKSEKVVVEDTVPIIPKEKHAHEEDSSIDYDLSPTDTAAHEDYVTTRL

[3] = molecular target: T3, Short transient receptor potential channel 3 (Homo sapiens, UniProt Q13507); assay: Inhibition of YFP-tagged human TRPC3 expressed in thapsigargin treated HEK293 cells assessed as reduction in amix-induced calcium level by fluo-4 dye based fluorescence assay; assay type: cell-based
T3 sequence (Q13507 whole entry): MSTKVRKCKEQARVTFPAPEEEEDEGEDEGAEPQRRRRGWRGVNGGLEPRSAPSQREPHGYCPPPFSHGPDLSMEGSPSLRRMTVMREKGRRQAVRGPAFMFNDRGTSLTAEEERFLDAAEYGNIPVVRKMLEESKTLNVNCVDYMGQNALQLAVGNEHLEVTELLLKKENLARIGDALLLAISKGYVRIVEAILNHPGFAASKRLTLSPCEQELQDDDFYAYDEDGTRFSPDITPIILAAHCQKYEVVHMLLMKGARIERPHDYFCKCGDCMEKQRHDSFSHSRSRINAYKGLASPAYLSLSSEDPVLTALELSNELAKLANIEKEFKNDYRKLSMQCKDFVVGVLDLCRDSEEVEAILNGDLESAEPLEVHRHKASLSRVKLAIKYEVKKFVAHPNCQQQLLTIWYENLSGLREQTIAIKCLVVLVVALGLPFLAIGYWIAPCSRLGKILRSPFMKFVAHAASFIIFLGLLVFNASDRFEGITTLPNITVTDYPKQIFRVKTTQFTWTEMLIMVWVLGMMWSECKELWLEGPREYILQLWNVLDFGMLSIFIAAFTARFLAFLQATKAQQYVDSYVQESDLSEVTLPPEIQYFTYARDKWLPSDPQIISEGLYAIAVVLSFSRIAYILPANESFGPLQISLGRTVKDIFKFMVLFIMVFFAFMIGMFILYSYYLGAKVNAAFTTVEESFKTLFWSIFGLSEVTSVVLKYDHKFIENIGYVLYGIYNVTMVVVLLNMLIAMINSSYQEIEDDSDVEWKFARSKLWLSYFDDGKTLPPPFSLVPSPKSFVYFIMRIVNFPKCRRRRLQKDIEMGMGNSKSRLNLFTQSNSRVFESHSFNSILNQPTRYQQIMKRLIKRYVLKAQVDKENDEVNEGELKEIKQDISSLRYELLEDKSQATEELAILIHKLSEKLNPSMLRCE

Mus musculus = species: Mus musculus; assay: Selectivity ratio of IC50 for YFP-tagged mouse TRPC7 expressed in thapsigargin treated HEK293 cells to IC50 for mouse TRPC5 expressed in thapsigargin treated HEK293/TREx cells; assay type: cell-based

IC50 [1] [µM]	IC50 [2] [µM]	IC50 [3] [µM]	SMILES	Ratio IC50 (Mus musculus)
> 10	–	–	N#Cc1ccc(O[C@@H]2c3ccccc3C[C@H]2N2CCC[C@@H](N)C2)c(Cl)c1	–
–	6.4	9.1	Clc1ccc(Cn2c(CN3CCCC3)nc3ccccc32)cc1 [CLEMIZOLE]	10
